Source: PubChem BioAssay (NCI)
“And” between values parts separate entries of the source, which are not always exact repeats. Equal entries are not always repeated.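 Test compounds were applied to cells in 96-well plates for 48 hours at 5 doses. GI50 = concentration required for 50% inhibition of growth. TGI denotes the concentration required for complete inhibition of growth.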

Columns and labels:
Assay in all cases: DTP human tumour cell line panel, 48 h
HOP-62 NSCLC = tested on: HOP-62 NSCLC
SW-620 colon = tested on: SW-620 colon
NCI-H522 lung = tested on: NCI-H522 lung
NCI-H226 lung = tested on: NCI-H226 lung
HCC-2998 colon = tested on: HCC-2998 colon
SK-MEL-28 melanoma = tested on: SK-MEL-28 melanoma
A498 renal = tested on: A498 renal
ACHN renal = tested on: ACHN renal
CCRF-CEM leukemia = tested on: CCRF-CEM leukemia
DU-145 prostate = tested on: DU-145 prostate

Row | SMILES | GI50 (HOP-62 NSCLC) | TGI (HOP-62 NSCLC) | GI50 (SW-620 colon) | TGI (SW-620 colon) | GI50 (NCI-H522 lung) | TGI (NCI-H522 lung) | GI50 (NCI-H226 lung) | TGI (NCI-H226 lung) | GI50 (HCC-2998 colon) | TGI (HCC-2998 colon) | GI50 (SK-MEL-28 melanoma) | TGI (SK-MEL-28 melanoma) | GI50 (A498 renal) | TGI (A498 renal) | GI50 (ACHN renal) | TGI (ACHN renal) | GI50 (CCRF-CEM leukemia) | TGI (CCRF-CEM leukemia) | GI50 (DU-145 prostate) | TGI (DU-145 prostate)
1 | CC(=O)N[C@@H](Cc1ccc(OP(=O)(O)O)cc1)C(=O)N[C@H]1CCC(=O)N2CCC[C@@H](C(=O)NCc3ccc(Cl)cc3)N2C1=O | > 25 µM | > 25 µM | > 25 µM | > 25 µM | > 25 µM | > 25 µM | > 25 µM | > 25 µM | > 25 µM | > 25 µM | > 25 µM | > 25 µM | > 25 µM | > 25 µM | > 25 µM | > 25 µM | > 25 µM | > 25 µM | > 25 µM | > 25 µM
2 | CCN1CCN(Cc2ccc(-c3cc4c(N[C@H](C)c5ccccc5)ncnc4[nH]3)cc2)CC1 | 3.52 µM and 3.53 µM | 18.3 µM and > 10 µM | 3.45 µM and 5.46 µM | 19.9 µM and > 10 µM | 0.154 µM and 0.462 µM | 2.23 µM and > 10 µM | 3.03 µM and 7.73 µM | 24.7 µM and > 10 µM | 7.63 µM and > 10 µM | 22.3 µM and > 10 µM | 1.96 µM and 1.98 µM | 3.93 µM and 4.26 µM | 0.947 µM and 0.35 µM | 2.82 µM and 2.08 µM | 0.0625 µM and 0.162 µM | 12.5 µM and > 10 µM | 2.41 µM and 3.23 µM | 6.43 µM and > 10 µM | 1.78 µM and 2.38 µM | 19.9 µM and > 10 µM
3 | CCCCON(OC(=O)c1ccccc1)C(=O)c1ccccc1 | > 100 µM | > 100 µM | > 100 µM | > 100 µM | > 100 µM | > 100 µM | > 100 µM | > 100 µM | > 100 µM | > 100 µM | > 100 µM | > 100 µM | > 100 µM | > 100 µM | > 100 µM | > 100 µM | 49.8 µM | > 100 µM | > 100 µM | > 100 µM
4 | COc1ccccc1NC(=O)c1sc2nc3c(cc2c1N)C(=O)CCC3 | 2.37 µM | 7.17 µM |  |  | 0.586 µM | 38.7 µM | 4.87 µM | > 100 µM | > 100 µM | > 100 µM | 3.46 µM | > 100 µM | 1.84 µM | > 100 µM | 6.2 µM | > 100 µM | > 100 µM | > 100 µM | > 100 µM | > 100 µM
5 | Clc1ccc(CSC(Cn2ccnc2)c2ccc(Cl)cc2Cl)cc1 (stereo unspecified) | 1.41 µM | 2.73 µM | 1.59 µM | 3.1 µM | 1.13 µM | 2.48 µM | 1.38 µM | 2.84 µM | 1.64 µM | 3.12 µM | 1.69 µM | 3.06 µM | 1.13 µM | 2.33 µM | 2.28 µM | 6.5 µM | 1.94 µM | 5.46 µM | 2.09 µM | 4.64 µM
6 | CC12CCC3C(CCC4Cc5[nH]c6ccccc6c5CC43C)C1CCC2O (stereo unspecified) | 0.348 µM | 2.57 µM | 0.497 µM | > 100 µM | 0.295 µM | 5.73 µM | 6.08 µM | > 100 µM | 0.633 µM | 2.54 µM | 0.813 µM | > 100 µM | 0.696 µM | 6.44 µM | 0.967 µM | > 100 µM | 1 µM | 6.44 µM | 1.69 µM | 5.5 µM
7 | COc1ccc2[nH]c(=O)c3c4ccccc4cn3c2c1 | 0.228 µM | 0.885 µM | 0.319 µM | 1.39 µM | 0.576 µM | 2.44 µM | 3.47 µM | 18 µM | 0.332 µM | 0.807 µM | 0.663 µM | 2.01 µM | 0.383 µM | 4.83 µM | 0.486 µM | 1.72 µM | 0.322 µM | 1.48 µM | 0.604 µM | 3.63 µM
8 | CCOC(=O)c1ccc2[nH]c(-c3ccc(S(=O)(=O)F)cc3)cc(=O)c2c1 |  | > 100 µM |  | > 100 µM |  | 39.4 µM |  | > 100 µM |  | 40 µM |  | > 100 µM |  | 68 µM |  | 84.2 µM |  | > 100 µM |  | > 100 µM
9 | Cn1cc(-c2ccc3c(Nc4cccc(NC(=O)Nc5cccc(F)c5)c4)ncnc3c2)cn1 | 1.84 µM | 14.9 µM | 1.9 µM | 4.45 µM | 1.22 µM | 15.9 µM | 12.1 µM | 35.9 µM | 4.81 µM | 16.2 µM | 1.55 µM | 3.08 µM | 0.0532 µM | 2.99 µM | 2.17 µM | 13.2 µM | 0.0474 µM | 13.7 µM | 1.86 µM | 6.6 µM
10 | CCSCC1CC(O)(c2ccccc2)C(c2ccccc2)C(c2ccc(Cl)cc2)O1 (stereo unspecified) | 1.85 µM | 3.6 µM | 1.82 µM | 4.39 µM |  |  | 1.74 µM | 3.97 µM | 1.82 µM | 3.58 µM | 1.79 µM | 4.19 µM | 1.79 µM | 3.41 µM | 1.81 µM | 3.68 µM | 2.03 µM | 6.5 µM | 1.99 µM | 4.4 µM
11 | COC(=O)[C@@]12C(=O)C=CC(=O)[C@@H]1C1C(=CC2COC(C)=O)O[C@@H]2OC3(CCCCC3)O[C@H]12 (stereo partly specified) |  | 35 µM |  | 12.1 µM |  | 6.29 µM |  | 32.4 µM |  | 30.4 µM |  | 32.7 µM |  | 37.4 µM |  | 23.9 µM |  | 17 µM |  | 32.2 µM
12 | Cc1ccc([N+](=O)[O-])cc1NC(=O)Nc1cccc(F)c1 | 9.77 µM | 43 µM | 4.66 µM | > 100 µM | 2.64 µM | 15.7 µM | 7.54 µM | > 100 µM | 4.02 µM | > 100 µM | 19.8 µM | > 100 µM | 1.61 µM | 9.76 µM | 3.78 µM | 23 µM | 3.96 µM | > 100 µM | 4.54 µM | 28.4 µM
13 | CN(C)CCOc1ccc(-c2nc(-c3ccc4c(c3)CC/C4=N\O)c(-c3ccncc3)[nH]2)cc1 | 4.3 µM and 4.48 µM | 9.23 µM and 13.1 µM | 4.07 µM and 2.15 µM | 7.72 µM and 4.78 µM | 3.9 µM and 5.5 µM | 9.59 µM and 21 µM | 4.72 µM and 8.03 µM | 9.77 µM and 17.1 µM | 4.74 µM and 8.01 µM | 8.89 µM and > 27.8 µM | 0.0188 µM and 0.029 µM | 3.26 µM and 1.85 µM | 4.68 µM and 8.84 µM | 9.57 µM and 27.2 µM | 4.79 µM and 5.03 µM | 9.01 µM and 22 µM | 4.32 µM and 2.43 µM | 11.3 µM and 10.2 µM | 4.11 µM and 9.02 µM | 7.82 µM and 17.4 µM
